No end group written: not given here. *: point of attachment. Palmitoyl = CCCCCCCCCCCCCCCC(=O)*
Tests used:
[1] = test system: heart; test: Phage screen of 12 phage in mice with myocardial infarction; format: in vivo; conditions: for preferential localization of phage-displayed peptide in the heart: mice 1, 3 and 7 days after MI, phage circulated 10 minutes; for time point preference of heart localization after infarct: 1, 3 and 7 days post-MI
Protocol: A limited phage screen of 12 phage was performed in a study against mice with myocardial infarction (MI) lasting 1, 3 and 7 days. This panel of phage was selected to include phage with a greater potential for injured tissue, a positive non-specific control and a negative control phage. All publications and references cited in FIG. 24 are incorporated by reference to the extent such incorporation is not contrary to the invention described therein. Nothing herein is to be construed as an admission that the invention is not entitled to antedate such disclosure by virtue of prior invention.
Amplified phage were mixed in a 1:1 ratio and 200 μl injected at 1×10^9 pfu/ml into animals 1, 3 and 7 days after myocardial ischemia was produced. Phage were allowed to circulate for 10 minutes before the animal was perfused through the left ventricle with warmed DMEM/BSA (1%, ˜10 ml) with the right ventricle cut. Tissues (heart, lung, liver, spleen, kidney) were then harvested and stored on ice in 1 ml of DMEM/BSA (1%) before homogenization (Omni International TH homogenizer). Four washes were performed using PBS/BSA (1%) with centrifugation at 2800 RCF (5 min, 4° C.) and resuspension in PBS/BSA (1%). After the final wash, homogenates were weighed then lysed with 100 μl Triton-X-100 (1% in PBS) on ice for 15 minutes; 900 ul of BLT5403 (OD 600) was then added and incubated for 10 minutes (r.t.). This solution was then serially diluted in LB+CarbenicilHn and 240 ul aliquots taken into 1.2 ml BLT5403 and 600 μl plated on 10 cm agar plates with 4 ml top agar. Following overnight incubation, plaques were counted and the pfu/g tissue homogenate was calculated. Plaques were picked into 30 μl of PBS, 1 μl of this solution was transferred into 14 μl PCR mix (GoTaq Green Master Mix 7.5 μl, 1.5 μl 5 μM T7down (AACCCCTCAAGACCCGTTTA (SEQ ID NO: 13)), 1.5 μl 5 μM T7 Superup (AGCGGACCAGATTATCGCTA (SEQ ID NO: 24)), 3.5 μl of DNAse free water). This mix was then subjected to polymerase chain reaction (PCR) (1 cycle of 5 min 94° C.; 35 cycles of 94° C. 30 s, 50° C. 30 s, 72° C. 1 min; 1 cycle 72° C. 1 min; hold at 4° C.). The PCR samples then underwent cleanup and sequencing.

[2] = test system: ischemic hindlimb; test: Fluorescent peptide homing studies, mouse hindlimb ischemia model; format: in vivo; conditions: for homing of peptide in the mouse ischemic hindlimb: cryosections, FIG. 16; for tissue to which the peptide homed: fluorescent peptide studies
Protocol: Four palmitated peptides were synthesized: SK(biotin)[…] […] Human mesenchymal stem cells (hMSCs) were transiently coated with the four palmitated peptides and fluorescently labeled with Vybrant dye. […] MSCs were grown in DMEM/FBS (10%) supplemented with FGF (5 ng/ml), then trypsinized, washed with DMEM and aliquoted at 1 million cells/vial and resuspended in Tyrodes. […] Cell solutions were then centrifuged (200 RCF, 5 min, r.t.), washed twice with cold Tyrodes, then incubated for 20 min with 20 μg/ml streptavidin-PE (S866 Invitrogen), washed with Tyrodes, fixed with formalin, and then assessed using flow cytometry and epifluorescent microscopy.
For animal experiments, MSCs were first incubated with Vybrant green (CDFA SE; Invitrogen) washed with Tyrodes, then coated with 50 μg/ml PA-peptides for 10 min at 37° C. with shaking. Following coating, cells were washed with Tyrodes twice and resuspended to give 5×10^6 cells/ml. Ischemia was produced in the left hind-limb through ligation and severing of the femoral artery in mice. Three days post ischemia, mice were injected with […] through the subclavian vein and cells allowed to circulate for two hours before sacrifice. Distribution of injected MSCs was monitored by whole-body (“Xenogen”) fluoroscopy. Animals were sacrificed and tissues (heart, lung, liver, spleen, kidney, left calf muscle, left femur muscle, right calf muscle and right femur muscle) were harvested and fluorescence histology was done on tissue cryosections.

[3] = test system: heart tissue; test: Homing of peptide-coated MSCs in mouse MI reperfusion model; format: in vivo, C57BL6 mice; conditions: for distribution of cells within heart tissue: coated MSCs, 1 hour circulation, day after 30 minute ischemia/reperfusion
Protocol: C57BL6 mice were operated on with a sterile surgical technique. Mice were anaesthetized and intubated. A longitudinal incision was made in the thorax and the heart elevated. The left anterior descending artery was identified, and a ligature suture was placed around the artery and tightened down over a piece of polyethylene tubing placed above the artery, as shown in FIG. 1. After 30 minutes the ligation was released, the chest closed and the mouse was allowed to recover. The following day the mouse was again anaesthetized and intubated, the thoracotomy re-opened and cells administered through the left ventricle (1×10^6 cells). Cells were allowed to circulate for 1 hour before blood was collected into EDTA tubes and the mouse sacrificed via exsanguination. Blood was collected just prior to exsanguination to provide samples for assay of Troponin I levels.
Sections were cryosectioned 8 microns thick, mounted in sequence onto slides and viewed for the fluorescent label of the cells.
Histology sections of cardiac tissues were examined for VYBRANT® (CDFA SE; Invitrogen) green-labeled cells to determine the cells' propensity to target or home to distinct regions of the tissues, especially those associated with the infarcted region. Outcomes were evaluated via quantitative fluorescent microscopy of infarcted and non-infarcted tissues. Area in millimeters squared were calculated from representative cross-sections and numbers of cells were counted on a series of sections taken through the heart.
Sections of heart tissue were also analyzed using fluorescent microscopy. Five slides containing six sections per slide were analyzed. On each section a count of the number of cells was made. The count was then normalized against the area of the centre section on that slide.
An enzyme-linked immunosorbent assay (ELISA) (Life Diagnostics, Inc., Cat. No. 2010-1-HSP) of cardiac troponin I was made on the plasma collected from each mouse according to the manufacturer's method. Briefly, 60 μl of plasma sample was diluted with 180 μl plasma diluent. Standards and samples (100 μl) were added to coated wells containing 100 μl of cardiac troponin I horse radish peroxidase conjugate. These were mixed on an orbital shaker at room temperature for 1 hour. This solution was removed and the wells were washed thoroughly; 100 μl of tetramethylbenzidine reagent was then added to each well. This was incubated on the orbital shaker at room temperature for 20 minutes, then stop solution was added (100 μl) and the absorbance read at 450 nm (Tecan Genios Pro).

[4] = test system: human mesenchymal stem cells (MSCs); test: MTT toxicity assay of PA-peptides; format: cell-based; conditions: 1 hour incubation
Protocol: Human mesenchymal stem cells (MSCs) were seeded on 96-well plates (5.8×10^3 cells/well; DMEM/FBS 10%) and allowed to grow/adhere for 2 days. Media was removed and PA-peptides were added (0-0.1 mg/ml) to the cells. Toxicity was assessed after 10 minute incubation and 1 hour incubation. Acute effects were assessed immediately following the 10 minute exposure, and longer-term effects were measured the next day after the 10 minute exposure and the 1 hour exposure. Toxicity was assessed using the MTT method. Briefly, 20 μl of MTT (5 mg/ml in PBS, sterile filtered, Corning 0.22 μm Polyethersulfone) was added to each well and the plate was then incubated for 4 hours at 37° C. Media containing MTT was then carefully removed and 100 μl of dimethyl sulfoxide (DMSO) was added to each well. Plates were incubated for a further 30 minutes at 37° C. to solubilize the purple formazan crystals, and absorbance was then measured using a plate reader (570 nm; Tekan Genios Pro).

[5] = test system: ischemic hearts; test: Uptake and localization of fluorescently labeled CRPPR in ischemic hearts; format: in vivo, mouse; conditions: 30 minutes, 6 hour and 24 hour ischemia
Protocol: Fluorescently labeled CRPPR (SEQ ID NO: 1) was also studied for uptake and localization in ischemic hearts (30 minutes, 6 hour and 24 hour ischemia). This fluorescently labeled peptide was injected through the subclavian vein and allowed to circulate for two hours before sacrifice. Tissues (heart, lung, liver, spleen and kidney) were harvested, placed in TISSUE-TEK® molds and frozen in OCT cryomounting medium. The tissues were stored on dry ice until being placed at −80° C. and 8-10 μn sections were made.
Sections of heart tissue through different regions of the heart were imaged using a fluorescent microscope and CCD camera. The images were then assessed for total fluorescence using ImageJ (Image Processing and Analysis in Java) (see FIG. 2).

[6] = test system: human mesenchymal stem cells (MSCs)
Protocol: MSCs were grown in Dulbecco's Modified Eagle's Medium (DMEM) and fetal bovine serum (FBS) (10%) supplemented with fibroblast growth factor-2 (FGF-2) (5 ng/ml) for 1 week. They were then trypsinized, washed with DMEM, aliquoted at 1 million cells/vial and resuspended in Tyrodes' balanced salt solution. […] was later used throughout the coating procedure. […] Cell solutions were centrifuged (200 RCF, 5 min, r.t.), washed twice with cold Tyrodes solution, then incubated for 20 minutes with 20 μg/ml streptavidin-PE (S866 Invitrogen), washed with Tyrodes solution, fixed with formalin, and then assessed using flow cytometry and epifluorescent microscopy.

Substance	preferential localization of phage-displayed peptide in the heart [1]	tissue to which the peptide homed [2]	distribution of cells within heart tissue [3]	other results
CARSKNKDC (Targeting Sequence 5)	some preferential localization in the heart	–	–	–
CRKDKC (cysteine pairing not given here; also: fluorescent label, position not given here)	some preferential localization	–	–	homing of peptide in the mouse ischemic hindlimb [2]: homing
PA-KSTRKS (Palmitoyl-KSTRKS) [palmitated peptide (cell paint)]	–	homed to ischemic skeletal muscle tissue	distributed cells with some localization in vessels	concentrations causing a decrease in mitochondrial activity [4]: ≥ 50 µg/mL
CGLIIQKNEC (Targeting Sequence 3) [Clot1, homing peptide]	–	–	–	homing of peptide in the mouse ischemic hindlimb [2]: homing
PA-CRKDKC (Palmitoyl-CRKDKC; cysteine pairing not given here) [palmitated peptide (cell paint)]	–	homed to ischemic muscle tissue	papillary fibers have a higher concentration of cells than the cardiac muscle	–
CRPPR (not fully specified)	some preferential localization in the heart	–	–	ischemia time at which localization was most pronounced [5]: most pronounced after 24 hour ischemia; localization of fluorescent peptide in heart tissue ([5]; two hours circulation): localize in heart tissue; time point preference of heart localization after infarct [1]: some preference for the earlier time point after infarct
PA-SK(Biotin)NSCARSKNKDC [PA-BioCAR]	–	homed to ischemic skeletal muscle tissue	distributed throughout the cardiac muscle	cell labeling by the peptide ([6]; FIGS. 4 and 5): labeled the cells efficiently; cell-associated fluorescence ([6]; PA-BioCAR 0 to 2 mg/ml, 10 minutes, 37° C., streptavidin-PE): increasing cell-associated fluorescence with increasing PA-BioCAR concentration; correlation between heart damage (cardiac troponin I) and cell number ([3]; FIG. 14): more cells localizing in the heart after relatively larger damage
PA-CRPPR (Palmitoyl-CRPPR) [palmitated peptide (cell paint)]	–	homed to cardiac tissue	some localization with vasculature	–
CREKA (Targeting Sequence 8)	some preferential localization in the heart	–	–	time point preference of heart localization after infarct [1]: three day time point

From patent publication US8580749B2, “Peptide-coated cell localization to diseased or damaged tissues and methods related thereto” (Cell Targeting, Inc., priority 2009, dated 2013)
